Experimental data taken from patent US20100209959A1, “TUMOUR-CELL-FIXING CELLS” (UNIVERSITE PIERRE ET MARIE CURIE-PARIS VI, priority 2007, published 2010).

Experiments:
HL60 cells [1] = assay: Proliferation of HL60 cells, free or fixed to hospicells, after exposure to AraC or DNR; assay type: cell-based, human; conditions: for living HL60 cells fixed to the hospicells during treatment / living free HL60 cells during treatment: 5 days' treatment; for living HL60 cells fixed to the hospicells during treatment / living HL60 cells on hospicells after the treatment is stopped: HL60 fixed to hospicells; for living HL60 cells on hospicells after the treatment is stopped / growth of free HL60 cells after the treatment is stopped: drug removed, fresh medium
Method: (§1) HL60 cells cultured with hospicells in RPMI medium were treated for 5 days with either aracytin (AraC) or daunorubicin (DNR).
After 5 days' treatment, the drug was removed and the cells were cultured again in fresh medium.
The number of living HL60 cells was measured throughout the experiment using the image analysis system.

hospicells = assay: Toxicity of the drug for hospicells in HL60/hospicell co-culture; assay type: cell-based
Method: as §1
This effect of “regrowth” of the cells is greater with aracytin than with daunorubicin, the difference being linked to the toxicity of daunorubicin for the hospicells.

OVCAR3 cells = assay: Chemoresistance of OVCAR3 cells co-cultured with hospicells (SRB assay); assay type: cell-based; conditions: verapamil 1.4 μM added, in the presence of carboplatin and paclitaxel
Method: Briefly, the hospicells were cultivated to 60% confluence. 2·10^4 OVCAR3 cells expressing GFP were then co-cultivated with the hospicells for 24 hours before being brought into contact with a chemotherapeutic agent (carboplatin 22.2 μM and paclitaxel 1.4 μM). The chemotherapeutic effect was determined with the aid of a quantitative colorimetric assay with sulforhodamine B (SRB) as described by Skehan et al. (1990) J. Natl. Cancer Inst. 82:1107-1112. The pink colour of the SRB was quantified by measuring the absorbance at 540 nm. For each condition, the mean cell density and the standard deviation were calculated from the data obtained for 6 wells. The experiments were repeated 3 times.
The role of the MDR proteins in the chemoresistance imparted by the hospicells was confirmed by repeating the above co-culture experiments of hospicells and OVCAR3 cells in the presence of carboplatin and paclitaxel, and adding to the culture medium verapamil (1.4 μM), an MDR1 protein inhibitor.

HL60 cells [2] = assay: Adhesion of HL60 cells to hospicells; assay type: cell-based, human; conditions: HL60 incubated beforehand with agent; tumour cells/hospicells 5/1; 24 hours at 37° C.
Method: HL60 cells were incubated in RPMI medium under […]: • HL60 cells alone (control) • HL60 cells+anti-arrestin antibody (control antibody) • HL60 cells+RGD (Arg-Gly-Asp, integrin consensus sequence, which partially prevents integrin dependent adhesion) • HL60 cells+anti-CD11a antibody • HL60 cells+anti-CD49d antibody • HL60 cells+anti-CD11a antibody+anti-CD49d antibody • HL60 cells+anti-CD11a antibody+anti-CD49d antibody+RGD
For each condition, HL60 cells were deposited separately and in identical amounts in 6 different wells containing complete RPMI medium and fixing cells which had adhered to the support. The ratio between tumour cells and hospicells was 5/1. After incubation for 24 hours at 37° C., the HL60 cells that had not adhered were recovered and counted. The percentage of HL60 cells adhering to the hospicells was then calculated for each condition.

| Compound | living HL60 cells fixed to the hospicells during treatment (HL60 cells [1]) | living HL60 cells on hospicells after the treatment is stopped (HL60 cells [1]) | effect of regrowth of the HL60 cells on hospicells, aracytin compared with daunorubicin (HL60 cells [1]; after the treatment is stopped) | living free HL60 cells during treatment (HL60 cells [1]) | growth of free HL60 cells after the treatment is stopped (HL60 cells [1]) | toxicity for the hospicells (hospicells) | chemoresistance imparted by the hospicells to the OVCAR3 cells (OVCAR3 cells) | adhesion of the HL60 cells to the hospicells (HL60 cells [2]) |
| --- | --- | --- | --- | --- | --- | --- | --- | --- |
| Nc1ccn([C@@H]2O[C@H](CO)[C@@H](O)[C@@H]2O)c(=O)n1 [AraC, aracytin] | no longer detectable | living HL60 cells are identifiable | greater | die | do not grow | – | – | – |
| COc1cccc2c1C(=O)c1c(O)c3c(c(O)c1C2=O)C[C@@](O)(C(C)=O)C[C@@H]3O[C@H]1C[C@H](N)[C@H](O)[C@H](C)O1 [DNR, daunorubicin] | no longer detectable | living HL60 cells are identifiable | – | die | do not grow | toxicity | – | – |
| COc1ccc(CCN(C)CCCC(C#N)(c2ccc(OC)c(OC)c2)C(C)C)cc1OC (stereo not drawn) [verapamil] | – | – | – | – | – | – | dramatically reduces | – |
| Arg-Gly-Asp [RGD] | – | – | – | – | – | – | – | partially blocks |
